Activity calls are given as the source filed them. The rule behind the calls is not given here.
Columns and labels:
[1] = test system: Neutrophil; experiment: Induction of chemotaxis in BALB/c mouse neutrophils assessed as increase in cell polarization measured for 15 mins by Zigmond-chamber based microscopy; type: functional; conditions: dose 5-40 µM
[2] = test system: Escherichia coli; experiment: Antimicrobial activity against Escherichia coli ATCC 25922 assessed as microbial growth inhibition at 100 uM; type: functional, organism-based
[3] = test system: Staphylococcus aureus; experiment: Antimicrobial activity against Staphylococcus aureus ATCC 25923 assessed as microbial growth inhibition at 100 uM; type: functional, organism-based
[4] = test system: Cutibacterium acnes; experiment: Antimicrobial activity against Propionibacterium acnes ATCC 6919 assessed as microbial growth inhibition at 100 uM; type: functional, organism-based
[5] = test system: Candida albicans; experiment: Antimicrobial activity against Candida albicans ATCC 10231 assessed as microbial growth inhibition at 100 uM; type: functional, organism-based
[6] = test system: RAW264.7; experiment: Induction of phagocytosis in mouse RAW264.7 cells assessed as increase in neutral red dye uptake by measuring optical density at 540 nm at 2.5 uM incubated for 24 hrs followed by dye addition measured after 4 hrs by absorbance based assay (reference value: 0.073); type: functional; conditions: time 28 hrs
[7] = test system: RAW264.7; experiment: Induction of phagocytosis in mouse RAW264.7 cells assessed as increase in neutral red dye uptake by measuring optical density at 540 nm at 20 uM incubated for 24 hrs followed by dye addition measured after 4 hrs by absorbance based assay (reference value: 0.073); type: functional; conditions: time 28 hrs
[8] = test system: RAW264.7; experiment: (§1) Induction of phagocytosis in mouse RAW264.7 cells cultured with Escherichia coli ATCC 25922 assessed as number of surviving engulfed bacteria at 5 uM incubated for 24 hrs followed by bacterial exposure for 1 hr and further treated with gentamycin for 2 hrs by plate counting method (reference value: 37); type: functional
[9] = test system: RAW264.7; experiment: as §1, with “at 20” for “at 5”; type: functional
[10] = test system: RAW264.7; experiment: Induction of TNF-alpha expression in mouse RAW264.7 cells incubated for 24 hrs by ELISA; type: functional, cell-based; conditions: dose 2.5-20 µM
[11] = test system: RAW264.7; experiment: Effect on total p38 level in mouse RAW264.7 cells at 2.5 to 20 uM incubated for 4 hrs by Western blot analysis; type: functional, cell-based; conditions: dose 2.5-20 µM
[12] = test system: HaCaT; experiment: Induction of cell migration in human HaCaT cells assessed as healing rate at 20 uM measured after 48 hrs by scratch healing assay (reference value: 63.1 %); type: functional
[13] = test system: HaCaT; experiment: Induction of cell migration in Aprepitant-treated human HaCaT cells assessed as healing rate at 20 uM measured after 24 hrs by scratch healing assay (reference value: 36.8 %); type: functional
[14] = test system: HaCaT; experiment: Induction of cell migration in human HaCaT cells assessed as actin stress fiber formation at peripheral side of cytoplasmic membrane at 20 uM measured after 24 hrs by immunofluorescence microscopy; type: functional, cell-based
[15] = test system: HUVEC; experiment: Induction of cell migration in HUVEC cells assessed as healing rate at 20 uM measured after 24 hrs by scratch healing assay (reference value: 30.2 %); type: functional, Homo sapiens
[16] = test system: HUVEC; experiment: Induction of cell migration in HUVEC cells assessed as healing rate at 20 uM measured after 48 hrs by scratch healing assay (reference value: 57.2 %); type: functional, Homo sapiens
[17] = test system: HUVEC; experiment: Induction of cell migration in HUVEC cells assessed as formation of cytoplasmic protrusions at 20 uM measured after 24 hrs by immunofluorescence microscopy; type: functional, cell-based; conditions: Homo sapiens
[18] = test system: HUVEC; experiment: Angiogenic activity in HUVEC cells assessed as increase in tube formation at 20 uM measured for 4 hrs by microscopic analysis relative to control; type: functional, Homo sapiens
[19] = test system: Aorta; experiment: Ex vivo angiogenic activity in C57BL/6 mouse aortic ring assessed as increase in sprouting by measuring vessel outgrowth area at 5 uM measured for 7 days by microscopic analysis relative to control; type: functional; conditions: time 7 day
[20] = Induction of wound healing in BALB/c mouse model of full-thickness wounds at 50 ug/ml, TOP bid measured after 4 days (reference value: 48.6 %); type: functional; conditions: dose 50 µg/ml, time 4 day
[21] = Induction of wound healing in BALB/c mouse model of full-thickness wounds at 100 ug/ml, TOP bid measured after 4 days (reference value: 48.6 %); type: functional; conditions: dose 100 µg/ml, time 4 day
[22] = Induction of wound healing in BALB/c mouse model of full-thickness wounds at 100 ug/ml, TOP bid measured after 8 days (reference value: 81.0 %); type: functional; conditions: dose 100 µg/ml, time 8 day
[23] = Toxicity in BALB/c mouse model of full-thickness wounds assessed as animal death at 50 to 200 ug/ml, TOP bid measured upto 8 days; conditions: in vivo, topical_or_ocular, 192 h, dose 50-200 µg/ml, time < 8 day
[24] = Toxicity in BALB/c mouse model of full-thickness wounds assessed as adverse effect on body weight at 50 to 200 ug/ml, TOP bid measured upto 8 days; conditions: in vivo, topical_or_ocular, 192 h, dose 50-200 µg/ml, time < 8 day
[25] = Toxicity in BALB/c mouse model of full-thickness wounds assessed as inflammatory foci in kidney at 200 ug/ml, TOP bid measured upto 8 days by H and E staining based analysis; type: tissue-based; conditions: in vivo, topical_or_ocular, 192 h, dose 200 µg/ml, time < 8 day
[26] = organism: Mus musculus; experiment: Induction of wound healing in BALB/c mouse model of full-thickness wounds assessed as increase in epidermal layer re-constuction at 50 ug/ml, TOP bid measured after 8 days by H and E staining based analysis; type: functional; conditions: dose 50.0 µg/ml, time 8.0 day
[27] = test system: Splenic fibroblast; experiment: Effect on TGF-1beta production in human […] fibroblasts at 5 to 40 uM incubated for 24 hrs by ELISA; type: functional, cell-based; conditions: dose 5-40 µM
[28] = Induction of wound healing in BALB/c mouse model of full-thickness wounds assessed as alpha-SMA level below wound surface at 50 to 200 ug/ml, TOP bid measured after 8 days by IHC analysis (reference value: 16.4 %); type: functional; conditions: dose 50-200 µg/ml, time 8 day, at 50 to 200 µg/mL
[29] = organism: Mus musculus; experiment: Induction of wound healing in BALB/c mouse model of full-thickness wounds assessed as increase in TGF-1beta production in wound skin at 50 to 200 ug/ml, TOP bid measured after 2 to 4 days by ELISA; type: functional; conditions: dose 50-200 µg/ml, time 2-4 day
[30] = organism: Mus musculus; experiment: Induction of wound healing in BALB/c mouse model of full-thickness wounds assessed as increase in phosphorylated Smad2 level in wound skin at 50 to 200 ug/ml, TOP bid measured after 4 days by Western blot analysis; type: functional; conditions: dose 50-200 µg/ml, time 4.0 day
[31] = organism: Mus musculus; experiment: Induction of wound healing in BALB/c mouse model of full-thickness wounds assessed as increase in recruitment of M1-type macrophages in wound skin at 50 ug/ml, TOP bid measured after 2 days by IHC analysis; type: functional; conditions: dose 50.0 µg/ml, time 2.0 day
[32] = organism: Mus musculus; experiment: Induction of wound healing in BALB/c mouse model of full-thickness wounds assessed as […] in IL-10 level in wound skin at 50 ug/ml, TOP bid measured after 2 days by ELISA; type: functional; conditions: dose 50.0 µg/ml, time 2.0 day
[33] = organism: Mus musculus; experiment: Induction of wound healing in BALB/c mouse model of full-thickness wounds assessed as increase in number of blood vessels in wound skin at 50 ug/ml, TOP bid measured after 4 days by IHC analysis; type: functional; conditions: dose 50.0 µg/ml, time 4.0 day

For H-KPNPDRFYGLM-NH2, the Activity [1] was “Dose-Dependent Effect”, the Activity [2] was “inactive” and the Activity [3] was “inactive”. For the same substance, the Activity [4] was “inactive”, the Activity [5] was “inactive” and the OD [6] was 0.097. For the same substance, the OD [7] was 0.109, the Activity [8] was 29 and the Activity [9] was 20. For the same substance, the Activity [10] was “Dose-Dependent Effect”, the Activity [11] was “inactive” and the Activity [12] was 92.8%. The Activity [13] was 41.7%, the Activity [14] was “Active” and the Activity [15] was 46.7%. The Activity [16] was 83.4%, the Activity [17] was “Active” and the Activity [18] was 181.4%. For the same substance, the Activity [19] was 77.6%, the Activity [20] was 64.8% and the Activity [21] was 70.9%. For the same substance, the Activity [22] was 100%, the Activity [23] was “Non-Toxic” and the Activity [24] was “Non-Toxic”. For the same substance, the Activity [25] was “Non-Toxic”, the Activity [26] was “Active” and the Activity [27] was “inactive”. The Activity [28] was 40.4%, the Activity [29] was “Active” and the Activity [30] was “Active”. The Activity [31] was “Active”, the Activity [32] was “Active” and the Activity [33] was “Active”.
